Measured values published in patent publication US20230219951A1, “PYRIDINE-PYRIMIDINE DERIVATIVE, PREPARATION METHOD THEREFOR AND PHARMACEUTICAL USE THEREOF” (Jiangsu Hengrui Pharmaceuticals Co., Ltd., priority 2020, published 2023).

Experiments:
[1] = target: T1, interaction between the KRAS protein subtype G12V and the SOS1 protein (Homo sapiens, UniProt Q07889); experiment: Inhibition of the interaction between KRAS G12V and SOS1 protein (AlphaLISA/AlphaScreen); format: binding; conditions: KRAS G12V + GST-TEV-SOS1(564-1049) + GDP
T1 construct: GST-TEV-SOS1(564-1049) (Viva Biotech, SOS1-191010); purchased SOS1: Viva Biotech; KRAS: Shanghai Panchao Biotechnology Co., Ltd. SOS1-191010
T1 sequence (Q07889 564-1049): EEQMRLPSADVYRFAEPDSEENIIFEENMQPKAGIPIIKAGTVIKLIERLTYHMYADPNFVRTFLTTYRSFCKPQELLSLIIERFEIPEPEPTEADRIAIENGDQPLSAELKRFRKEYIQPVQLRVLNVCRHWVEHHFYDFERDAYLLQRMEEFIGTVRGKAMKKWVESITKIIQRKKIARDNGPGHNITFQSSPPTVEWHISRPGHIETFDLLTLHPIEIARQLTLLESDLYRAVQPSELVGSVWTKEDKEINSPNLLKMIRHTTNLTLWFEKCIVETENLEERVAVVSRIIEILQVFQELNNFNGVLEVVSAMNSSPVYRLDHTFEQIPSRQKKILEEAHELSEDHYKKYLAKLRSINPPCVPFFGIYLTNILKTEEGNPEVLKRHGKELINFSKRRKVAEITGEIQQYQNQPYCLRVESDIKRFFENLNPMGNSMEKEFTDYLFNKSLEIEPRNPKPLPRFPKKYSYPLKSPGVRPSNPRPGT
Method in brief: (§1)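 Biotinylated KRAS G12D or G12V preincubated with SOS1 and GDP, then with compound (10-point 5-fold series from 40 μM) for 30 min at room temperature in PBS, 0.1% BSA, 0.05% Tween 20. Glutathione acceptor/streptavidin donor beads added for 60 min; Alpha signal read and IC50 calculated.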

[2] = target: T2, interaction between the KRAS protein subtype G12D and the SOS1 protein (Homo sapiens, UniProt Q07889); experiment: Inhibition of the interaction between KRAS G12D and SOS1 protein (AlphaLISA/AlphaScreen); format: binding; conditions: KRAS G12D + GST-TEV-SOS1(564-1049) + GDP
T2 construct: GST-TEV-SOS1(564-1049) (Viva Biotech, SOS1-191010); purchased SOS1: Viva Biotech; KRAS: Shanghai Panchao Biotechnology Co., Ltd. SOS1-191010
T2 sequence (Q07889 564-1049): T1 sequence (Q07889 564-1049)
Method in brief: as §1

[3] = target: T3, hERG potassium channel (Homo sapiens, UniProt Q12809); experiment: Manual patch-clamp of hERG potassium currents in CHO cells stably expressing hERG channel; format: cell-based; conditions: read-out: IC50(μM), blocking effect on the hERG potassium ion channel
T3 construct: host or cells: CHO
T3 sequence (Q12809 whole entry): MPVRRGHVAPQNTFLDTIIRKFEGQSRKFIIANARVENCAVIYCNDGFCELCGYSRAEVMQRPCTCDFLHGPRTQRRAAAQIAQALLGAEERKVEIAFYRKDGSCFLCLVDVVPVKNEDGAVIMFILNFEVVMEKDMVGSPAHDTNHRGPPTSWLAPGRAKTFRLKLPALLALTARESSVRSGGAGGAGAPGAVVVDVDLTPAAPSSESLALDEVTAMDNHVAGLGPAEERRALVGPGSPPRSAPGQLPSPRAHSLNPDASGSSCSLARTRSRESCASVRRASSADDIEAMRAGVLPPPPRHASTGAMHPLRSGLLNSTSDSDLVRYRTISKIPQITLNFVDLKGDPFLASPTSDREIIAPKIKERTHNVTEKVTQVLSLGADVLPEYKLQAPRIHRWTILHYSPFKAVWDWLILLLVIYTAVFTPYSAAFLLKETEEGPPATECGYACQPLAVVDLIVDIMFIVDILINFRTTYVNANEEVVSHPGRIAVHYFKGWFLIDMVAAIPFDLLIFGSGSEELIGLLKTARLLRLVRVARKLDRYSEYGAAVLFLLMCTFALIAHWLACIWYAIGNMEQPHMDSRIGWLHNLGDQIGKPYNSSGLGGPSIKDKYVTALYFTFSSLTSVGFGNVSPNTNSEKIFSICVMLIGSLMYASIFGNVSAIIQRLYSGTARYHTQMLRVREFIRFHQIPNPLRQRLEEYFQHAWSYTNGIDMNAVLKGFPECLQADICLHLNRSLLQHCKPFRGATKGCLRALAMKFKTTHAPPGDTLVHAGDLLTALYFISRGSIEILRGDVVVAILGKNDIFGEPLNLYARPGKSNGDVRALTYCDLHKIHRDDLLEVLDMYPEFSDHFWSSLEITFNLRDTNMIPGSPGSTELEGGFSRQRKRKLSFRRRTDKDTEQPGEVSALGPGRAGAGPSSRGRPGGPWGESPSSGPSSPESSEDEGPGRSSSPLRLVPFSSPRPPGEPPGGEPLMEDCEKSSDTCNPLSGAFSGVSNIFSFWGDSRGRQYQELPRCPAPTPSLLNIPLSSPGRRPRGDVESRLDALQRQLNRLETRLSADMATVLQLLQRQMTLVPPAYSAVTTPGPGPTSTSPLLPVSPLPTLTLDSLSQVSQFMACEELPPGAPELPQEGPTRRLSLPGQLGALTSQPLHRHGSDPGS
Experimental: This example is intended to test the blocking effect of the compounds of the present disclosure on hERG potassium currents in a stable cell strain transfected with an hERG potassium channel by a manual patch-clamp assay.
The cells used in this experiment were from a CHO cell line (provided by Sophion Bioscience, Denmark) transfected with hERG cDNA and stably expressing hERG channel at cell passage number of P5. Cells were cultured in a medium containing the following components (all from Invitrogen): Ham's F12 medium, 10% (v/v) inactivated fetal bovine serum, […] hygromycin B, and […] geneticin. CHO hERG cells were grown in a culture dish containing the above culture medium and cultured in an incubator at 37° C. with 5% CO2. […]
In this experiment, a manual patch-clamp system (HEKA EPC-10 signal amplifier and digital conversion system, purchased from HEKA Electronics, Germany) was used for whole cell current recording. […] After the hERG potassium currents recorded in the above step were stable under the continuous extracellular fluid perfusion in the recording chamber, the drug to be tested could be added for perfusion until the inhibition effect of the drug on the hERG current reached a stable state. […]
The blocking effect of the compound of the present disclosure on hERG potassium currents was determined by the above test.

IC50 [1]: 67 nM | IC50 [2]: 20 nM
Structure (SMILES): Cc1nc(N[C@H](C)c2cccc(C(F)F)c2F)c2cc([C@]3(O)CC[C@@H](O)CC3)c(=O)[nH]c2n1 [Example 18-p1, 4-(((R)-1-(3-(difluoromethyl)-2-fluorophenyl)ethyl)amino)-6-((1s,4S)-1,4-dihydroxycyclohexyl)-2-methylpyrido[2,3-d]pyrimidin-7(8H)-one]
IC50 [3]: > 30 µM
